Measured values taken from patent US20180015075A1, “METHODS AND COMPOSITIONS FOR TREATMENT OF VENOUS MALFORMATION” (Children's Hospital Medical Center, priority 2016, published 2018).
Where two headings read alike, the source gives them in different places.

Columns and labels:
[1] = test system: Pik3ca^H1047R VM lesions; conditions: mouse, in vivo; cited from earlier work
[2] = test system: HUVEC-TIE2-L914F-GFP vascular channels; assay: Fibrin gel bead assay; type: cell-based, human
Description: Assay was performed as described(34). Briefly, coated the beads with HUVEC-GFP or HUVEC-TIE2-L914F-GFP cells (2500 beads with 1×10^6 cells) and mixed coated beads in fibrinogen solution at a concentration of ˜500 beads/ml. Then 0.625 Units/mL of thrombin and 0.5 ml beads/fibrinogen suspension were added per well in 24-well plate successively. After dotting in the 37° C.-incubator, added 1 ml EGM-2 medium and 20,000 fibroblasts per well on the top. Then beads treated by adding DMSO, Ponatinib, rapamycin or combination in the medium

| Compound | VM lesion growth [1] | cell apoptosis (cleaved caspase-3 positive cells) [1] | tube formation (tube area at day 11) [2] | vascular/tube area expansion from day 8 to 14 [2] | vascular/tube area expansion from day 8 to 14 ([2]; 100 nM Ponatinib or 10 nM rapamycin added from day 8, vehicle 54.50±3.81%) |
| --- | --- | --- | --- | --- | --- |
| Cc1nc(NC(=O)N2CCC[C@H]2C(N)=O)sc1-c1ccnc(C(C)(C)C(F)(F)F)c1 [BYL719] | strongly inhibited VM lesion growth | increased the number of cleaved caspase-3 positive cells | – | – | – |
| CO[C@H]1C[C@@H]2CC[C@@H](C)[C@@](O)(O2)C(=O)C(=O)N2CCCC[C@H]2C(=O)O[C@H]([C@H](C)C[C@@H]2CC[C@@H](OCCO)[C@H](OC)C2)CC(=O)[C@H](C)/C=C(\C)[C@@H](O)[C@@H](OC)C(=O)[C@H](C)C[C@H](C)/C=C/C=C/C=C/1C [Everolimus, 42-O-(2-Hydroxyethyl)-rapamycin] | prevented lesion growth | did not induce cell apoptosis | – | – | – |
| Cc1ccc(C(=O)Nc2ccc(CN3CCN(C)CC3)c(C(F)(F)F)c2)cc1C#Cc1cnc2cccnn12 [Ponatinib, 3-(2-imidazo[1,2-b]pyridazin-3-ylethynyl)-4-methyl-N-[4-[(4-methyl-1-piperazinyl)methyl]-3-(trifluoromethyl)phenyl]-benzamide] | – | – | almost completely inhibited tube formation | 14.79±4.53% | – |
| CO[C@H]1C[C@@H]2CC[C@@H](C)[C@@](O)(O2)C(=O)C(=O)N2CCCC[C@H]2C(=O)O[C@H]([C@H](C)C[C@@H]2CC[C@@H](O)[C@H](OC)C2)CC(=O)[C@H](C)/C=C(\C)[C@@H](O)[C@@H](OC)C(=O)[C@H](C)C[C@H](C)/C=C/C=C/C=C/1C [Sirolimus, Rapamycin] | – | – | – | – | 20.25±3.23% |
